Data published in patent publication US8575156B2, “Cyclic inhibitors of 11β-hydroxysteroid dehydrogenase 1” (Vitae Pharmaceuticals, Inc., priority 2007, dated 2013).
Where two headings read alike, the source gives them in different places.

Target: 11β-HSD1 (Homo sapiens, UniProt P28845)
Experiment: biochemical
Settings: for IC50: IC50 Range, Biological Test Example 1, microsomes from CHO cells overexpressing human 11β-HSD1; for inhibition at 0.1 µM: read-out: Average % inhibition at 100 nM, Biological Test Example 1; for inhibition at 0.1111 µM: read-out: Average % inhibition at 111.1 nM, Biological Test Example 1, 111.1 nM compound

11β-HSD1, sequence (P28845 whole entry): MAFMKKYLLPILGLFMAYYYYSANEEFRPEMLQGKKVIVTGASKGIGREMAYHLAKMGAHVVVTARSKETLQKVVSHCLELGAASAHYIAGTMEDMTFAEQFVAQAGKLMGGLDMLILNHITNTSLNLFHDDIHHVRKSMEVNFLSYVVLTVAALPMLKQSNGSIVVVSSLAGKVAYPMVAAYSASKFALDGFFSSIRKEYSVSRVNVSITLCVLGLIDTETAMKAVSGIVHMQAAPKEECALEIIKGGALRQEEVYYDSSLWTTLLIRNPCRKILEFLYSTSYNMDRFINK

| IC50 | inhibition at 0.1 µM (100 nM) | inhibition at 0.1111 µM | inhibition at 0.1 µM (100 nM compound) | Structure (SMILES) |
| --- | --- | --- | --- | --- |
| < 100 nM | 88.7% | – | – | CC(O)CC[C@]1(c2ccc(F)cc2)CCN([C@@H](C)c2ccc(F)cc2)C(=O)O1 (single isomer, unassigned) [EXAMPLE 411 Isomer 1] |
| < 100 nM | 77.9% | – | – | COc1ccc([C@H](C)N2CC[C@](C)(c3ccc(CO)cc3)OC2=O)cc1 (single isomer, unassigned) [EXAMPLE 429 Isomer 1] |
| > 100 nM | 23% | – | – | COc1ccc([C@H](C)N2CC[C@@](C)(c3ccc(CO)cc3)OC2=O)cc1 (single isomer, unassigned) [EXAMPLE 429 Isomer 2] |
| < 100 nM | – | – | – | C=CC[C@@]1(c2ccc(F)cc2)CCN([C@@H](C)c2ccc(Cl)c(F)c2)C(=O)O1 (single isomer, unassigned) [EXAMPLE 497 Isomer 1] |
| < 100 nM | – | – | – | C=CC[C@]1(c2ccc(F)cc2)CCN([C@@H](C)c2ccc(Cl)c(F)c2)C(=O)O1 (single isomer, unassigned) [EXAMPLE 497 Isomer 2] |
| > 100 nM | – | – | – | C=CC[C@@]1(c2ccc(F)cc2)CCN([C@H](C)c2ccc(Cl)c(F)c2)C(=O)O1 (single isomer, unassigned) [EXAMPLE 497 Isomer 3] |
| < 100 nM | – | – | – | C=CC[C@]1(c2ccc(F)cc2)CCN([C@H](C)c2ccc(Cl)c(F)c2)C(=O)O1 (single isomer, unassigned) [EXAMPLE 497 Isomer 4] |
| < 100 nM | 49.9% | – | – | C[C@@H](c1ccc(Br)cc1)N1CC[C@@](CCC(N)=O)(c2ccc(F)cc2F)OC1=O (single isomer, unassigned) [EXAMPLE 504 Isomer 1] |
| < 100 nM | 94.4% | – | – | C[C@@H](c1ccc(Br)cc1)N1CC[C@](CCC(N)=O)(c2ccc(F)cc2F)OC1=O (single isomer, unassigned) [EXAMPLE 504 Isomer 2] |
| < 100 nM | 92.2% | – | – | C[C@@H](c1ccc(Br)cc1)N1CC[C@@](C)(c2ccc(F)cc2)OC1=O (single isomer, unassigned) [EXAMPLE 518 Isomer 1] |
| < 100 nM | 98% | – | – | C[C@@H](c1ccc(Br)cc1)N1CC[C@](C)(c2ccc(F)cc2)OC1=O (single isomer, unassigned) [EXAMPLE 518 Isomer 2] |
| < 100 nM | – | – | – | Cc1cc(-c2ccc([C@H](C)N3CCC(C)(c4ccc(F)cc4)OC3=O)cc2)ccn1 (single isomer, unassigned) [EXAMPLE 519 Isomer 1] |
| < 100 nM | 94.5% | – | – | CC(C[C@]1(c2ccc(F)cc2)CCN([C@@H](C)c2ccc(Br)cc2)C(=O)O1)C(N)=O (single isomer, unassigned) [EXAMPLE 523 Isomer 1] |
| < 100 nM | 99.5% | – | – | CC(CO)C[C@]1(c2ccc(F)cc2)CCN([C@@H](C)c2ccc(Br)cc2)C(=O)O1 (single isomer, unassigned) [EXAMPLE 577 Isomer 1] |
| < 100 nM | – | 90.5% | – | CC1(c2ccccc2)CCN(c2cccc(-c3ccccc3Cl)c2)C(=O)O1 (stereo not shown) [EXAMPLE 10, 3-(2′-chlorobiphenyl-3-yl)-6-methyl-6-phenyl-1,3-oxazinan-2-one] |
| 100 to 1000 nM | – | 28.4% | – | CC1(c2ccccc2)CCN(c2cccc(-c3ccc(S(C)(=O)=O)cc3)c2)C(=O)O1 (stereo not shown) [EXAMPLE 11, 3-(4′-Methanesulfonyl-biphenyl-3-yl)-6-methyl-6-phenyl-[1,3]oxazinan-2-one] |
| < 100 nM | – | 86.4% | – | CC1(c2ccccc2)CCN(c2cccc(-c3ccccc3C#N)c2)C(=O)O1 (stereo not shown) [EXAMPLE 12, 3′-(6-Methyl-2-oxo-6-phenyl-[1,3]oxazinan-3-yl)-biphenyl-2-carbonitrile] |
| 100 to 1000 nM | – | 19.2% | – | CC(C)NS(=O)(=O)c1ccc(-c2cccc(N3CCC(C)(c4ccccc4)OC3=O)c2)cc1 (stereo not shown) [EXAMPLE 13, N-isopropyl-3′-(6-methyl-2-oxo-6-phenyl-1,3-oxazinan-3-yl)biphenyl-4-sulfonamide] |
| 100 to 1000 nM | – | 21.9% | – | CN(C)S(=O)(=O)c1cccc(-c2cccc(N3CCC(C)(c4ccccc4)OC3=O)c2)c1 (stereo not shown) [EXAMPLE 14, N,N-dimethyl-3′-(6-methyl-2-oxo-6-phenyl-1,3-oxazinan-3-yl)biphenyl-3-sulfonamide] |
| 100 to 1000 nM | – | 38.5% | – | CC1(c2ccccc2)CCN(c2cccc(-c3ccccc3S(C)(=O)=O)c2)C(=O)O1 (stereo not shown) [EXAMPLE 15, 6-methyl-3-(2′-(methylsulfonyl)biphenyl-3-yl)-6-phenyl-1,3-oxazinan-2-one] |

| IC50 | inhibition at 0.1 µM (100 nM) | inhibition at 0.1111 µM | inhibition at 0.1 µM (100 nM compound) | Structure (SMILES) |
| --- | --- | --- | --- | --- |
| 100 to 1000 nM | – | 35.7% | – | CC1(c2ccccc2)CCN(c2cccc(-c3ccc(S(=O)(=O)N4CCCC4)cc3)c2)C(=O)O1 (stereo not shown) [EXAMPLE 16, 6-methyl-6-phenyl-3-(4′-(pyrrolidin-1-ylsulfonyl)biphenyl-3-yl)-1,3-oxazinan-2-one] |
| < 100 nM | – | 58.8% | – | CC1(c2ccccc2)CCN(c2cccc(-c3cccc(C#N)c3)c2)C(=O)O1 (stereo not shown) [EXAMPLE 17, 3′-(6-methyl-2-oxo-6-phenyl-1,3-oxazinan-3-yl)biphenyl-3-carbonitrile] |
| 100 to 1000 nM | – | 7.2% | – | COCCNC(=O)c1cccc(-c2cccc(N3CCC(C)(c4ccccc4)OC3=O)c2)c1 (stereo not shown) [EXAMPLE 18, N-(2-methoxyethyl)-3′-(6-methyl-2-oxo-6-phenyl-1,3-oxazinan-3-yl)biphenyl-3-carboxamide] |
| 100 to 1000 nM | – | 24% | – | CC1(c2ccccc2)CCN(c2cccc(-c3ccc(CNS(C)(=O)=O)cc3)c2)C(=O)O1 (stereo not shown) [EXAMPLE 19, N-((3′-(6-methyl-2-oxo-6-phenyl-1,3-oxazinan-3-yl)biphenyl-4-yl)methyl)methanesulfonamide] |
| < 100 nM | – | 76.7% | – | COc1ccccc1-c1cccc(N2CCC(C)(c3ccccc3)OC2=O)c1 (stereo not shown) [EXAMPLE 21, 3-(2′-methoxybiphenyl-3-yl)-6-methyl-6-phenyl-1,3-oxazinan-2-one] |
| < 100 nM | – | 88.9% | – | CC1(c2ccccc2)CCN(c2cccc(-c3c(Cl)cccc3Cl)c2)C(=O)O1 (stereo not shown) [EXAMPLE 22, 3-(2′,6′-dichlorobiphenyl-3-yl)-6-methyl-6-phenyl-1,3-oxazinan-2-one] |
| < 100 nM | – | 86% | 93.4% | CC1(c2ccccc2)CCN(c2cccc(-c3cccc(Cl)c3)c2)C(=O)O1 (stereo not shown) [EXAMPLE 24, 3-(3′-chlorobiphenyl-3-yl)-6-methyl-6-phenyl-1,3-oxazinan-2-one] |
| < 100 nM | – | 87% | 88.2% | CC1(c2ccccc2)CCN(c2cccc(-c3cc(F)ccc3F)c2)C(=O)O1 (stereo not shown) [EXAMPLE 26, 3-(2′,5′-difluorobiphenyl-3-yl)-6-methyl-6-phenyl-1,3-oxazinan-2-one] |
| < 100 nM | – | 67% | – | CC1(c2ccccc2)CCN(c2cccc(-c3cc(F)cc(F)c3)c2)C(=O)O1 (stereo not shown) [EXAMPLE 27, 3-(3′,5′-difluorobiphenyl-3-yl)-6-methyl-6-phenyl-1,3-oxazinan-2-one] |
| 100 to 1000 nM | – | 29.8% | – | CC1(c2ccccc2)CCN(c2cccc(-c3cccc(NS(C)(=O)=O)c3)c2)C(=O)O1 (stereo not shown) [EXAMPLE 29, N-(3′-(6-methyl-2-oxo-6-phenyl-1,3-oxazinan-3-yl)biphenyl-3-yl)methanesulfonamide] |
| 100 to 1000 nM | – | 23.1% | – | CNS(=O)(=O)c1cccc(-c2cccc(N3CCC(C)(c4ccccc4)OC3=O)c2)c1 (stereo not shown) [EXAMPLE 30, N-methyl-3′-(6-methyl-2-oxo-6-phenyl-1,3-oxazinan-3-yl)biphenyl-3-sulfonamide] |
| 100 to 1000 nM | – | 27.5% | – | CNC(=O)c1cccc(-c2cccc(N3CCC(C)(c4ccccc4)OC3=O)c2)c1 (stereo not shown) [EXAMPLE 31, N-methyl-3′-(6-methyl-2-oxo-6-phenyl-1,3-oxazinan-3-yl)biphenyl-3-carboxamide] |
| 100 to 1000 nM | – | 46% | – | CC1(c2ccccc2)CCN(c2cccc(-c3cccc(N)c3)c2)C(=O)O1 (stereo not shown) [EXAMPLE 32, 3-(3′-aminobiphenyl-3-yl)-6-methyl-6-phenyl-1,3-oxazinan-2-one] |
| – | – | 37.1% | – | CC1(c2ccccc2)CCN(c2cccc(-c3ccncc3)c2)C(=O)O1 (stereo not shown) [EXAMPLE 33, 6-methyl-6-phenyl-3-(3-(pyridin-4-yl)phenyl)-1,3-oxazinan-2-one] |
| < 100 nM | – | 72% | – | COc1cccc(-c2cccc(N3CCC(C)(c4ccccc4)OC3=O)c2)c1 (stereo not shown) [EXAMPLE 34, 3-(3′-methoxybiphenyl-3-yl)-6-methyl-6-phenyl-1,3-oxazinan-2-one] |
| 100 to 1000 nM | – | 26.7% | – | CC1(c2ccccc2)CCN(c2cccc(-c3ccccc3CO)c2)C(=O)O1 (stereo not shown) [EXAMPLE 35, 3-(2′-(hydroxymethyl)biphenyl-3-yl)-6-methyl-6-phenyl-1,3-oxazinan-2-one] |
| < 100 nM | – | 63.3% | – | CC1(c2ccccc2)CCN(c2cccc(-c3cccs3)c2)C(=O)O1 (stereo not shown) [EXAMPLE 36, 6-methyl-6-phenyl-3-(3-(thiophen-2-yl)phenyl)-1,3-oxazinan-2-one] |
| 100 to 1000 nM | – | 17.8% | – | COC(=O)c1cccc(-c2cccc(N3CCC(C)(c4ccccc4)OC3=O)c2)c1 (stereo not shown) [EXAMPLE 38, methyl 3′-(6-methyl-2-oxo-6-phenyl-1,3-oxazinan-3-yl)biphenyl-3-carboxylate] |
| 100 to 1000 nM | – | 24.8% | – | CC1(c2ccccc2)CCN(c2cccc(-c3cccc(CO)c3)c2)C(=O)O1 (stereo not shown) [EXAMPLE 39, 3-(3′-(hydroxymethyl)biphenyl-3-yl)-6-methyl-6-phenyl-1,3-oxazinan-2-one] |
| 100 to 1000 nM | – | 28.8% | – | CC1(c2ccccc2)CCN(c2cccc(-c3cccc(S(C)(=O)=O)c3)c2)C(=O)O1 (stereo not shown) [EXAMPLE 40, 6-methyl-3-(3′-(methylsulfonyl)biphenyl-3-yl)-6-phenyl-1,3-oxazinan-2-one] |
